According to patent US20070066616A1, “Inhibitors for extracellular signal-regulated kinase docking domains and uses therefor” (priority 2005, published 2007):
“Also recorded” adds a separate entry of the source.

Test system: ERK-mediated phosphorylation of Rsk-1 on Thr573
Assay: ERK-mediated Rsk-1 phosphorylation (Thr573), immunoblot and densitometry in EGF-stimulated HeLa cells
Format: cell-based, human
Conditions: immunoblot
Method: Prior to harvesting, cells were pre-incubated with the test compounds for 15-20 minutes and then stimulated with EGF or anisomycin to activate the ERK or p38 MAP kinase pathways, respectively. Control and treated cells were washed twice with cold phosphate buffered saline (PBS, pH 7.2; Invitrogen) and proteins were collected following cell lysis with 300 μl of cold tissue lysis buffer (20 mM Tris, pH 7.4, 137 mM NaCl, 2 mM EDTA, 1% Triton X-100, 0.1% SDS, 25 mM β-glycerophosphate, 2 mM sodium pyrophosphate, 10% glycerol, 1 mM sodium orthovanadate, 1 mM phenylmethylsulfonyl fluoride (PMSF), 1 mM benzamidine), allowed to incubate on ice for about 10 minutes and then centrifuged at 20,000 (X g) to clarify the lysates of insoluble material. The lysates then were diluted with an equal volume of 2X SDS-sample buffer and the proteins were separated on SDS-PAGE for immunoblot analysis. Immunoblot analysis was done as previously described (41-43).
All compounds were subjected to assays of ERK specific phosphorylation of Rsk-1 and/or Elk-1 as examined by immunoblot analysis using phosphorylation specific antibodies. In FIG. 5A HeLa cells were cultured in 24 well plates and pretreated for 20-30 minutes with […] of the selected test compounds. The cells were stimulated with epidermal growth factor (EGF, 50 ng/ml) for 5 minutes to activate the ERK pathway. Cell lysates were collected and immunoblotted for ERK-mediated phosphorylation of Rsk-1 on Thr573. As shown, EGF treatment alone caused a robust increase in Thr573 phosphorylation on Rsk-1 in the absence of test compounds. The presence of test compounds had inhibitory effects on ERK-mediated Rsk-1 phosphorylation.
Compounds 86-98 were first tested for inhibition of ERK mediated phosphorylation of the transcription factor Elk-1, which is an important regulator of cell proliferation. Cells were treated with EGF to activate the ERK pathway and phosphorylation of Elk-1 on the ERK site at S383 was detected by immunoblot analysis (FIG. 5C). […] The effects of the test compounds were also tested with Rsk-1, another ERK substrate involved in regulating cell proliferation.

| SMILES | effect on ERK-mediated Rsk-1 phosphorylation (in words) |
| --- | --- |
| N=C(N)Nc1nc(C2COc3ccccc3O2)cs1 (stereo not drawn) [Compound 36] | little effect |
| COc1ccc(CN2CCNCC2)cc1 [Compound 67] | significantly reduced |
| CN(C)CCNC(=O)c1ccc(-c2ccccc2)cc1 [Compound 68] | appeared to enhance; also recorded: enhanced |
| NC(=N[N+](=O)[O-])N/N=C/c1ccc(-c2cccc([N+](=O)[O-])c2)o1 [Compound 89] | most effective |
| CC(Oc1ccc(C=C2NC(=S)NC2=O)cc1)C(=O)O (stereo not drawn) [Compound 91] | most effective |
| COc1cc(C=C2NC(=O)NC2=O)ccc1OCc1ccc(Br)cc1 [Compound 95] | most effective |

Test system: HeLa cells
Assay: Colony formation assay, HeLa cells
Format: cell-based, human
Conditions: HeLa cells, single dose 0-100 μM, 8-10 days, at least 3 experiments
Method: HeLa, A549, or SUM-159 cells were plated at a low density of ˜200-400 cells per well in the absence or presence of putative ERK docking domain inhibitors. Cell colonies were stained with crystal violet and counted after 6-10 days.
(§1) Trypsinized cells were plated on 12 or 24 well plates at low densities (200-400 cells per well) in the absence (DMSO only) or presence of test compounds. In additional experiments, cells were first allowed to adhere to the culture dishes for 16 hours prior to treatment with test compounds. The treated cells received a single dose of the test compounds at the beginning of the experiments. The control and treated cells were grown for 8-14 days to allow the formation of colonies. Cells then were fixed for 10 minutes in 4% paraformaldehyde and stained with 0.2% crystal violet (in 20% methanol) for 1-2 minutes. Following several washes with distilled water, the colonies (containing at least 40 cells) were counted. Each individual experiment was repeated on at least 3 separate occasions.
HeLa cells were plated at low density and incubated with a single dose (0-100 μM) of the test compounds being tested. After 8-10 days, the resulting cell colonies were stained, photographed, and counted to estimate the IC50. The data is derived from at least 3 independent experiments.

| IC50 | SMILES |
| --- | --- |
| > 100 µM | C#CCOC(=O)CCCC(=O)Nc1ccc([N+](=O)[O-])cc1Cl [Compound 87] |
| > 100 µM | CCOC(=O)c1ccc(C=NO)[n+]([O-])c1 [Compound 88] |
| > 100 µM | CCOC(=O)c1ccc(NC(=S)NCCN2CCOCC2)cc1 [Compound 90] |
| > 100 µM | CC(Oc1ccc(C=C2NC(=S)NC2=O)cc1)C(=O)O (stereo not drawn) [Compound 91] |
| 5 to 10 µM | Cc1ccc(-c2nc(-c3cccc([N+](=O)[O-])c3)no2)c(Cl)c1 [Compound 93] |
| 10 to 25 µM | COc1cc(C=C2NC(=O)NC2=O)ccc1OCc1ccc(Br)cc1 [Compound 95] |
| > 100 µM | COc1ccc(C(=O)Nc2ccc(OCC(=O)O)cc2)cc1 [Compound 96] |
| > 100 µM | O=C(CN1CCSCC1)NN=Cc1ccc(Br)s1 [Compound 97] |

| SMILES | IC50 |
| --- | --- |
| NC(=O)COc1ccc(C=C2C(=O)NC(=S)NC2=O)cc1 [Compound 98] | > 100 µM |

Same assay, conditions: compounds 86-98, colony formation assay (FIG. 7E)

| SMILES | inhibition of colony formation / cancer cell proliferation (in words) |
| --- | --- |
| Cc1ccc(-c2nc(-c3cccc([N+](=O)[O-])c3)no2)c(Cl)c1 [Compound 93] | most effective inhibitors |

Test system: ERK specific phosphorylation of Rsk-1 and/or Elk-1
Assay: ERK substrate phosphorylation assays (Rsk-1 and/or Elk-1)
Format: cell-based, human
Conditions: not given
Method: (§2) Prior to harvesting, cells were pre-incubated with the test compounds for 15-20 minutes and then stimulated with EGF or anisomycin to activate the ERK or p38 MAP kinase pathways, respectively. […] The lysates then were diluted with an equal volume of 2X SDS-sample buffer and the proteins were separated on SDS-PAGE for immunoblot analysis. Immunoblot analysis was done as previously described (41-43).

| SMILES | activity in ERK substrate phosphorylation assays (in words) |
| --- | --- |
| N=C(N)Nc1nc(C2COc3ccccc3O2)cs1 (stereo not drawn) [Compound 36] | little effect |

Test system: SUM-159 estrogen-receptor negative breast cancer cell line
Assay: Cell proliferation, SUM-159 cells
Format: cell-based, human
Conditions: not given
Method: (§3) HeLa, A549, or SUM-159 cells were plated at a low density of ˜200-400 cells per well in the absence or presence of putative ERK docking domain inhibitors. Cell colonies were stained with crystal violet and counted after 6-10 days. In FIG. 7A cells were grown on 10 cm plates in the absence (−) or presence of 100 mM of compound 67, 36, 68, 81, or 76. Colony formation dose response in the presence of the indicated concentrations of compound 76 or 81 for Hela cells (100 mM) (FIG. 7B), A549 cells (50 mM) (FIG. 7C), or SUM-159 cells (50 mM) (FIG. 7D).
as §1

| SMILES | inhibition of cell proliferation in SUM-159 (in words) |
| --- | --- |
| O=C(CCN1CCN(C/C=C/c2ccccc2)CC1)Nc1ccc(Cl)cc1 [Compound 81] | inhibition of cell proliferation |

Biological target: T1, ERK2 (Mus musculus, UniProt P63085)
T1 construct: (His)x6; made in house; host or cells: bacteria
Assay: Fluorescence titration (quenching of intrinsic ERK2 fluorescence)
Format: binding
Conditions: fluorescence titration
Method: Experiments measure the changes in the intrinsic ERK2 fluorescence due to the presence of aromatic amino acids, with the indole group of tryptophan being the major fluorophore with absorption and emission maxima around 280 and 340 nanometers (nm), respectively. Fluorescence spectra were recorded with a Luminescence Spectrometer LS50 (Perkin Elmer, Boston, Mass.). For all experiments, ERK2 protein was diluted into 20 mM Tris-HCl, pH 7.5. Titrations were performed by increasing the test compound concentration while maintaining the ERK2 protein concentration at 3 μM.
The excitation wavelength was 295 nm and fluorescence was monitored from 300 to 500 nm. All reported fluorescence intensities are relative values and are not corrected for wavelength variations in detector response. Dissociation constants, KD, were determined using reciprocal plots, 1/ν vs 1/[I], where ν represents the percent occupied sites calculated assuming fluorescence quenching to be directly proportion to the percentage of occupied binding sites, [I] represents the concentration of the inhibitor compound and the slope of the curve equals the KD (48-49).
ERK2 contains three tryptophans, which have intrinsic fluorescence. Fluorescence quenching of ERK2 by the test compounds is indicative of binding interactions and potential protein conformational changes.

T1 sequence (P63085 whole entry): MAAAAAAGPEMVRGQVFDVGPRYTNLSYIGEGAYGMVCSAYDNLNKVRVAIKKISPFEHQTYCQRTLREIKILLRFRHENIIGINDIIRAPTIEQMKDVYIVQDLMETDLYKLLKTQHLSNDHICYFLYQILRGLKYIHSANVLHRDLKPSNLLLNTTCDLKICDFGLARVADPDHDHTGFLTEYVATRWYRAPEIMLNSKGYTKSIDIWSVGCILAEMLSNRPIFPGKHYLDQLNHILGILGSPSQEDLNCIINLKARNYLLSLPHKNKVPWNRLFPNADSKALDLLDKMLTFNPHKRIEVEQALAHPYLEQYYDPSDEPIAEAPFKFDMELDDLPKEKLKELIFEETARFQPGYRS

| SMILES | ERK2 fluorescence quenching / binding (in words) |
| --- | --- |
| COc1ccc(CN2CCNCC2)cc1 [Compound 67] | did not show quenching |
| O=C(CCN1CCN(C/C=C/c2ccccc2)CC1)Nc1ccc(Cl)cc1 [Compound 81] | quenching only occurs to a small extent at the higher concentrations |
| Cc1ccc(-c2nc(-c3cccc([N+](=O)[O-])c3)no2)c(Cl)c1 [Compound 93] | some quenching |

Test system: HeLa, A549, or SUM-159 cells
Assay: Colony formation assay, screen of test compounds (FIG. 7A)
Format: cell-based, human
Set-up: dose or concentration left out as unconfirmed
Conditions: FIG. 7A screen as printed
Method: as §3, with “(100 mM)” left out
as §1
The effects of the active compounds on cell proliferation and survival were tested using a colony formation assay.

| SMILES | effect on colony formation / cell proliferation (in words) |
| --- | --- |
| N=C(N)Nc1nc(C2COc3ccccc3O2)cs1 (stereo not drawn) [Compound 36] | subtle inhibition; also recorded: little effect |
| COc1ccc(CN2CCNCC2)cc1 [Compound 67] | little effect |
| CN(C)CCNC(=O)c1ccc(-c2ccccc2)cc1 [Compound 68] | little effect |
| O=C(CCN1CCN(C/C=C/c2ccccc2)CC1)Nc1ccc(Cl)cc1 [Compound 81] | completely inhibited |

Test system: A549 lung carcinoma cells
Assay: Colony formation assay, A549 cells
Format: cell-based, human
Conditions: colony formation dose response (FIG. 7C)
Method: as §3, §1

| IC50 | SMILES |
| --- | --- |
| ~15 µM | O=C(CCN1CCN(C/C=C/c2ccccc2)CC1)Nc1ccc(Cl)cc1 [Compound 81] |

Test system: ERK-mediated phosphorylation of Elk-1 on S383
Assay: ERK-mediated Elk-1 phosphorylation (Ser383), immunoblot in EGF-stimulated HeLa cells
Format: cell-based, human
Conditions: not given
Method: as §2
Cells were treated with EGF to activate the ERK pathway and phosphorylation of Elk-1 on the ERK site at S383 was detected by immunoblot analysis (FIG. 5C). […] The effects of the test compounds were also tested with Rsk-1, another ERK substrate involved in regulating cell proliferation.

| SMILES | effect on ERK-mediated Elk-1 phosphorylation (in words) |
| --- | --- |
| NC(=N[N+](=O)[O-])N/N=C/c1ccc(-c2cccc([N+](=O)[O-])c2)o1 [Compound 89] | most effective |
| Cc1ccc(-c2nc(-c3cccc([N+](=O)[O-])c3)no2)c(Cl)c1 [Compound 93] | most effective |
| COc1cc(C=C2NC(=O)NC2=O)ccc1OCc1ccc(Br)cc1 [Compound 95] | most effective |

Test system: HT1080 fibrosarcoma cells
Assay: Cell proliferation, HT1080 cells
Format: cell-based, human
Conditions: data not shown
Method: as §1

| SMILES | inhibition of cell proliferation in HT1080 (in words) |
| --- | --- |
| O=C(CCN1CCN(C/C=C/c2ccccc2)CC1)Nc1ccc(Cl)cc1 [Compound 81] | inhibition of cell proliferation |
